These results are taken from patent publication US12459932B2, “KIF18A inhibitors” (AMGEN INC., priority 2018, dated 2025).

This assay addresses T1, Recombinant human KIF18A (1-467 His-tagged) (Homo sapiens, UniProt Q8NI77).
T1 construct: Recombinant human KIF18A (1-467 His-tagged) protein; His
As to the kind of experiment: KIF18A Enzyme Assay: microtubule-stimulated ATPase activity (ADP-Glo). In kind it is biochemical. As to conditions: 30 nM KIF18A, 30 μg/mL pig microtubules, ATP 75 μM (Km), ADP-Glo luminescence. A digest of the protocol:
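Measures microtubule-stimulated ATPase activity as ADP formed, detected by luminescence. Compounds were tested as 2-fold serial dilutions over 22 points. IC50 values came from four-parameter logistic fits.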

T1 sequence (Q8NI77 1-467): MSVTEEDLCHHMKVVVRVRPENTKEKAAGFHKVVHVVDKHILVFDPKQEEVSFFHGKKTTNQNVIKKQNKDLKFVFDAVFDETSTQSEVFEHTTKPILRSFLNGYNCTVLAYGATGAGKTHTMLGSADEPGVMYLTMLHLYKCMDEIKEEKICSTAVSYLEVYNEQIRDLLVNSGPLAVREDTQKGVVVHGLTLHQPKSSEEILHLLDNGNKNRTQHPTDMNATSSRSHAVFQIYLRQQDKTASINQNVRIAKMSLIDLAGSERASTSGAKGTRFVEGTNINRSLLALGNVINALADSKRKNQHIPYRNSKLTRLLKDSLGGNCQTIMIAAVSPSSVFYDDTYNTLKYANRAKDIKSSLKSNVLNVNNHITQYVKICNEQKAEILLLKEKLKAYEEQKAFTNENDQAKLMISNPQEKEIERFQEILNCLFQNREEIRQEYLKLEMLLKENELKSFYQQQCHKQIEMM
T1 sequence (P02550 whole entry partner): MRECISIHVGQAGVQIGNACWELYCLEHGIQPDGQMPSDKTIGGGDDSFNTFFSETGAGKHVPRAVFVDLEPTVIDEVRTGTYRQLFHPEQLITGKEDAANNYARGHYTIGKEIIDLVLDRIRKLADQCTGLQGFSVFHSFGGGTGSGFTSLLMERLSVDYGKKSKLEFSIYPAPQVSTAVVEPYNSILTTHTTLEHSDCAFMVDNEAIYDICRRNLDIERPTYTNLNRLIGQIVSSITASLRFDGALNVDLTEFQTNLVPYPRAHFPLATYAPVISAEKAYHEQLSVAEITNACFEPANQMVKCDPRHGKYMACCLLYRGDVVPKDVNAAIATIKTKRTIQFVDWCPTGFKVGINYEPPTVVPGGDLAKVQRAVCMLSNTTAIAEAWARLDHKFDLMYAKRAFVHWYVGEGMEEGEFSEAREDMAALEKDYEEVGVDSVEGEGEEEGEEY
T1 sequence (P02554 whole entry partner): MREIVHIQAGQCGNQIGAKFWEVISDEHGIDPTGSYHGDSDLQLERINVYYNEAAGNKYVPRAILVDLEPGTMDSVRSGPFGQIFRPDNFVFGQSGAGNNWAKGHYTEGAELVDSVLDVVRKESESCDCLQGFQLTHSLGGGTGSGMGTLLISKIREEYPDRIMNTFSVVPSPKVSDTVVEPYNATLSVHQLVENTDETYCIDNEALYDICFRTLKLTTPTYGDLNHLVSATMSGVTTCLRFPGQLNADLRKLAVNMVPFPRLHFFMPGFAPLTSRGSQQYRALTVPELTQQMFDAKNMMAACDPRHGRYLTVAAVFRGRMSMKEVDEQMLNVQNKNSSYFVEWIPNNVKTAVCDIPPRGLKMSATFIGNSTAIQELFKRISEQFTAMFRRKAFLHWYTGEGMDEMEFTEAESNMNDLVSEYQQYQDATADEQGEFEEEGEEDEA

One may read the IC50 as the concentration at which inhibition is half-maximal. Take `C[C@@H]1CN(c2cccc(NC(=O)c3ccc(S(=O)(=O)CC(C)(C)O)cc3N3CCC4(CC3)CC4)n2)CCO1` [Example 2-6, (R)-4-((2-Hydroxy-2-methylpropyl)sulfonyl)-N-(6-(2-methylmorpholino)pyridin-2-yl)-2-(6-azaspiro[2.5]octan-6-yl)benzamide]: the IC50 was determined as 110 nM.

`CNS(=O)(=O)c1ccc(C(=O)Nc2cccc(N3CCO[C@H](C)C3)n2)c(N2CCC3(CC2)CC3)c1` [Example 1-3, (R)-N-(6-(2-Methylmorpholino)pyridin-2-yl)-4-(N-methylsulfamoyl)-2-(6-azaspiro[2.5]octan-6-yl)benzamide]: the IC50 is 44 nM.

With `CC1(S(=O)(=O)Nc2ccc(C(=O)Nc3cccc(N4CCC5(CC5)C4)n3)c(N3CCC4(CC3)CC4)c2)CC1` [Example 3-20, N-(6-(5-Azaspiro[2.4]heptan-5-yl)pyridin-2-yl)-4-((1-methylcyclopropane)-1-sulfonamido)-2-(6-azaspiro[2.5]octan-6-yl)benzamide], the IC50 came to 50 nM.

`CC1(S(=O)(=O)Nc2ccc(C(=O)Nc3cccc(N4CCC[C@@](C)(O)C4)n3)c(N3CCC4(CC3)CC4)c2)CC1` [Example 3-10, (R)-N-(6-(3-Hydroxy-3-methylpiperidin-1-yl)pyridin-2-yl)-4-((1-methylcyclopropane)-1-sulfonamido)-2-(6-azaspiro[2.5]octan-6-yl)benzamide]: the IC50 amounted to 143 nM.

Regarding `Cc1cc(NC(=O)c2ccc(NS(=O)(=O)CCO)cc2N2CCC3(CC2)CC3)nc(OCC(C)(C)O)c1` [Example 17-2, N-(6-(2-Hydroxy-2-methylpropoxy)-4-methylpyridin-2-yl)-4-((2-hydroxyethyl)sulfonamido)-2-(6-azaspiro[2.5]octan-6-yl)benzamide], the IC50 was found to be 59 nM.

With `C[C@@H]1CN(c2cccc(NC(=O)c3ccc(NS(=O)(=O)C4(F)CC4)cc3N3CCC4(CC3)CC4)n2)CCO1` [Example 7-15, (R)-4-((1-Fluorocyclopropane)-1-sulfonamido)-N-(6-(2-methylmorpholino)pyridin-2-yl)-2-(6-azaspiro[2.5]octan-6-yl)benzamide], the IC50 stood at 90 nM.

For `Cc1cc(NC(=O)c2ccc(NS(C)(=O)=O)cc2N2CCC3(CC2)CC3)nc(N2CCC(F)(F)CC2)c1` [Example 7-21, N-(6-(4,4-Difluoropiperidin-1-yl)-4-methylpyridin-2-yl)-4-(methylsulfonamido)-2-(6-azaspiro[2.5]octan-6-yl)benzamide], the IC50 came to 49 nM.

In the case of `Cc1cc(NC(=O)c2ccc(S(=O)(=O)NCCO)cc2N2CCC3(CC2)CC3)nc(N2CCC(F)(F)CC2)c1` [Example 1-2, N-(6-(4,4-Difluoropiperidin-1-yl)-4-methylpyridin-2-yl)-4-(N-(2-hydroxyethyl)sulfamoyl)-2-(6-azaspiro[2.5]octan-6-yl)benzamide], the IC50 came to 32 nM.

`Cc1cc(NC(=O)c2ccc(NS(=O)(=O)C3CC3)cc2N2CCC3(CC2)CC3)nc(N2CC(F)(F)C2)c1` [Example 7-34, 4-(Cyclopropanesulfonamido)-N-(6-(3,3-difluoroazetidin-1-yl)-4-methylpyridin-2-yl)-2-(6-azaspiro[2.5]octan-6-yl)benzamide]: the 50% inhibitory concentration (IC50) was determined as 41 nM.

Turning to `C[C@@H]1CN(c2cccc(NC(=O)c3ccc(NS(=O)(=O)C(F)(F)F)cc3N3CCC4(CC3)CC4)n2)CCO1` [Example 7-41, (R)-N-(6-(2-Methylmorpholino)pyridin-2-yl)-2-(6-azaspiro[2.5]octan-6-yl)-4-((trifluoromethyl)sulfonamido)benzamide], the IC50 was determined as 207 nM.

With `CC1(S(=O)(=O)Nc2ccc(C(=O)Nc3cccc(N4CCC[C@H](O)C4)n3)c(N3CCC4(CC3)CC4)c2)CC1` [Example 3-1, (S)-N-(6-(3-Hydroxypiperidin-1-yl)pyridin-2-yl)-4-((1-methylcyclopropane)-1-sulfonamido)-2-(6-azaspiro[2.5]octan-6-yl)benzamide], the IC50 is 56 nM.

Take `C[C@@H]1CN(c2cccc(NC(=O)c3ccc(S(=O)(=O)NC(C)(C)C)cc3N3CCC4(CC3)CC4)n2)CCO1` [Example 1-6, (R)-4-(N-(tert-Butyl)sulfamoyl)-N-(6-(2-methylmorpholino)pyridin-2-yl)-2-(6-azaspiro[2.5]octan-6-yl)benzamide]: the IC50 is 51 nM.

With `Cc1cc(NC(=O)c2ccc(NS(=O)(=O)CC3CC3)cc2N2CCC3(CC2)CC3)nc(N2CCC(F)(F)CC2)c1` [Example 7-24, 4-((Cyclopropylmethyl)sulfonamido)-N-(6-(4,4-difluoropiperidin-1-yl)-4-methylpyridin-2-yl)-2-(6-azaspiro[2.5]octan-6-yl)benzamide], the IC50 came out at 186 nM.

As to `CC(C)(C)NS(=O)(=O)c1ccc(C(=O)Nc2cccc(N3CCO[C@H](CO)C3)n2)c(N2CCC3(CC2)CC3)c1` [Example 4-3, (S)-4-(N-(tert-Butyl)sulfamoyl)-N-(6-(2-(hydroxymethyl)morpholino)pyridin-2-yl)-2-(6-azaspiro[2.5]octan-6-yl)benzamide], the IC50 came out at 86 nM.

For `C[C@@H]1CN(c2cccc(NC(=O)c3ccc(S(=O)(=O)NCCO)cc3N3CCC4(CC3)CC4)n2)CCO1` [Example 1-1, (R)-4-(N-(2-Hydroxyethyl)sulfamoyl)-N-(6-(2-methylmorpholino)pyridin-2-yl)-2-(6-azaspiro[2.5]octan-6-yl)benzamide], the IC50 turned out to be 16 nM.

On to `C[C@@H](CO)S(=O)(=O)Nc1ccc(C(=O)Nc2cccc(N3CCC(F)(F)CC3)n2)c(N2CCC3(CC2)CC3)c1` (single isomer, unassigned) [Example 9-9], for which the IC50 came to 41 nM.

Take `O=C(Nc1cccc(OCC(O)C(F)(F)F)n1)c1ccc(NS(=O)(=O)CCO)cc1N1CCC2(CC1)CC2` (stereo not drawn) [Example 16-8, 4-((2-Hydroxyethyl)sulfonamido)-2-(6-azaspiro[2.5]octan-6-yl)-N-(6-(3,3,3-trifluoro-2-hydroxypropoxy)pyridin-2-yl)benzamide]: the IC50 is 18 nM.

As to `Cc1cc(NC(=O)c2ccc(S(=N)(=O)C3CC3)cc2N2CCC3(CC2)CC3)nc(N2CC(F)(F)C2)c1` (stereo in doubt) [Example 28-2, 2-(6-Azaspiro[2.5]octan-6-yl)-4-(R-cyclopropylsulfonimidoyl)-N-(6-(3,3-difluoro-1-azetidinyl)-4-methyl-2-pyridinyl)benzamide], the IC50 amounted to 37 nM.

Take `C[C@@H]1CN(c2cccc(NC(=O)c3ccc(NS(=O)(=O)CF)cc3N3CCC4(CC3)CC4)n2)CCO1` [Example 7-38, (R)-4-((Fluoromethyl)sulfonamido)-N-(6-(2-methylmorpholino)pyridin-2-yl)-2-(6-azaspiro[2.5]octan-6-yl)benzamide]: the IC50 is 48 nM.

As to `Cc1cc(NC(=O)c2ccc(NS(=O)(=O)[C@H](C)CO)cc2N2CCC3(CC2)CC3)nc(N2CCOCC2)c1` (single isomer, unassigned) [Example 9-13], the IC50 stood at 18 nM.

For the compound `C[C@H](CO)S(=O)(=O)Nc1ccc(C(=O)Nc2cccc(N3CC(F)(F)C3)n2)c(N2CCC3(CC2)CC3)c1` (single isomer, unassigned) [Example 9-3], the IC50 was determined as 25 nM.

`C[C@@H]1CN(c2cccc(NC(=O)c3ccc(S(=O)(=O)CCO)cc3N3CCC4(CC3)CC4)n2)CCO1` [Example 2-1, (R)-4-((2-Hydroxyethyl)sulfonyl)-N-(6-(2-methylmorpholino)pyridin-2-yl)-2-(6-azaspiro[2.5]octan-6-yl)benzamide]: the IC50 worked out at 32 nM.

Regarding `Cc1cc(NC(=O)c2ccc(NS(=O)(=O)C3CCC3)cc2N2CCC3(CC2)CC3)nc(N2CC(F)(F)C2)c1` [Example 7-30, 4-(Cyclobutanesulfonamido)-N-(6-(3,3-difluoroazetidin-1-yl)-4-methylpyridin-2-yl)-2-(6-azaspiro[2.5]octan-6-yl)benzamide], the IC50 was determined as 78 nM.

As for `Cc1cc(NC(=O)c2ccc(S(=O)(=O)NC3(C)COC3)cc2N2CCC3(CC2)CC3)nc(N2CCO[C@H](C)C2)c1` [Example 1-8, (R)-N-(4-Methyl-6-(2-methylmorpholino)pyridin-2-yl)-4-(N-(3-methyloxetan-3-yl)sulfamoyl)-2-(6-azaspiro[2.5]octan-6-yl)benzamide], the IC50 was determined as 119 nM.

For the compound `C[C@H](CO)S(=O)(=O)Nc1ccc(C(=O)Nc2cccc(N3CC(F)C3)n2)c(N2CCC3(CC2)CC3)c1` (single isomer, unassigned) [Example 9-1], the IC50 was found to be 33 nM.

On to `Cc1cc(NC(=O)c2ccc(NS(=O)(=O)CCO)cc2N2CCC3(CC2)CC3)nc(N2CCC(F)(F)CC2)c1` [Example 6, N-(6-(4,4-Difluoropiperidin-1-yl)-4-methylpyridin-2-yl)-4-((2-hydroxyethyl)sulfonamido)-2-(6-azaspiro[2.5]octan-6-yl)benzamide], for which the IC50 was 47 nM.

For `C[C@@H](CO)S(=O)(=O)Nc1ccc(C(=O)Nc2cccc(OCCC(F)(F)F)n2)c(N2CCC3(CC2)CC3)c1` (single isomer, unassigned) [Example 8-2], the IC50 was found to be 14 nM.

For the compound `CC1(S(=O)(=O)Nc2ccc(C(=O)Nc3cccc(N4CCC[C@H](CO)C4)n3)c(N3CCC4(CC3)CC4)c2)CC1` [Example 3-7, (S)-N-(6-(3-(Hydroxymethyl)piperidin-1-yl)pyridin-2-yl)-4-((1-methylcyclopropane)-1-sulfonamido)-2-(6-azaspiro[2.5]octan-6-yl)benzamide], the IC50 amounted to 65 nM.

For the compound `CC1(S(=O)(=O)Nc2ccc(C(=O)Nc3cccc(N4CCO[C@H](CO)C4)n3)c(N3CCC4(CC3)CC4)c2)CC1` [Example 3-12, (S)-N-(6-(2-(Hydroxymethyl)morpholino)pyridin-2-yl)-4-((1-methylcyclopropane)-1-sulfonamido)-2-(6-azaspiro[2.5]octan-6-yl)benzamide], the IC50 came out at 81 nM.

On to `Cc1cc(NC(=O)c2ccc(NS(=O)(=O)C(C)(C)C)cc2N2CCC3(CC2)CC3)nc(N2CC(F)(F)C2)c1` [Example 7-29, N-(6-(3,3-Difluoroazetidin-1-yl)-4-methylpyridin-2-yl)-4-((1,1-dimethylethyl)sulfonamido)-2-(6-azaspiro[2.5]octan-6-yl)benzamide], for which the IC50 was found to be 134 nM.
